16 compounds from US20240246954A1, “COMPOSITIONS AND METHODS FOR INHIBITING KRAS” (TheRas, Inc., priority 2021, published 2024) can be followed below.

Usually Kd stands for a measure of binding affinity in units of concentration. Read a high Kd as a looser complex. A word on the IC50: it is the concentration at which inhibition is half-maximal. A high value points to a need for much substance.

Test [1] has as its target GppNHp KRAS G12D (Homo sapiens, UniProt P01116, G12D). In words: SPR binding affinity, GppNHp KRAS G12D. Particulars: GppNHp-bound KRAS G12D. For orientation: In SPR one partner is held on a chip, and binding of the other changes the refractive index at the surface.
The target of test [2] is T1, Avi-KRAS G12D (1-169) GppNHp/RAF1 RBD-3×FLAG (52-151) (Homo sapiens, UniProt P01116, G12D).
T1 construct: Avi-KRAS G12D (1-169) GppNHp
Briefly: HTRF Raf1-KRAS G12D-GppNHp disruption assay. The test is classed as biochemical. The note with it: 1 h incubation. The procedure, abridged:
(§1)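 HTRF read-out (320 nm excitation, 615 nm emission) after two 1 h room-temperature incubations, first with protein mix, then detection reagents. Ten-point dilution series starting at 100 μM; results given as % activity relative to DMSO at 100%.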
(TR-FRET usually uses a lanthanide donor and a delayed reading to cut background.)

In test [3] the target is T2, Avi-KRAS G12D/Q25A (1-169) GppNHp/3×FLAG-PI3KCA (157-299) (Homo sapiens, UniProt P01116, G12D/Q25A).
T2 construct: Avi-KRAS G12D/Q25A (1-169) GppNHp
Briefly: HTRF PI3KCA-KRAS G12D/Q25A-GppNHp disruption assay. Format: biochemical. The note with it: 1 h incubation. The method, boiled down: as §1

Test [4] has as its system pERK in GP2d cells (KRAS G12D). Briefly: Cell-based pERK HTRF assay. Particulars: GP2d, 1 h, 60 min incubation. The method, boiled down: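 GP2d cells (DMEM, 10% FBS) treated 60 min with compounds in a 9-point half-log series from 1 μM top concentration, 0.25% DMSO. Lysates read for pERK by HTRF (d2/Eu cryptate antibodies) after 4–24 h at room temperature; emission at 615 nm.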

T1 sequence (P01116 1-169 isoform P01116-2 G12D limits assumed): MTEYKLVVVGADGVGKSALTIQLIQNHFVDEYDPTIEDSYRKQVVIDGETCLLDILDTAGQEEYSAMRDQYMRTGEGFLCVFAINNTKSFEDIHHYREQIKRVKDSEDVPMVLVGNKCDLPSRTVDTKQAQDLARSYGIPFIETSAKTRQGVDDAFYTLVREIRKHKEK
T2 sequence (P01116 1-169 isoform P01116-2 G12D/Q25A limits assumed): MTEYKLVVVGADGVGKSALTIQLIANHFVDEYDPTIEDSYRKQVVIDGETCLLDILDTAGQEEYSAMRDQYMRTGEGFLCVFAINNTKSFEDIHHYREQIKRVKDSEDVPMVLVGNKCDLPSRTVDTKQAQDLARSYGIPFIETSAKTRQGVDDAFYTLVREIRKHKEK
Sequence of GppNHp KRAS G12D (P01116 1-188 isoform P01116-2 G12D): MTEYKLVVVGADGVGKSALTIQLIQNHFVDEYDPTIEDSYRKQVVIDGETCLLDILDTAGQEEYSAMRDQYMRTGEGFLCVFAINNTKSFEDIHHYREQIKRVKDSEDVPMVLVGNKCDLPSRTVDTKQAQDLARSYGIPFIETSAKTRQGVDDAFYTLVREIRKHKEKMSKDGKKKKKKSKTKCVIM

Compound `CO[C@@H]1C[C@@H](COc2nc(NCCN)c3cc(Cl)c(-c4ccc(F)c5sc(N)nc45)c(F)c3n2)N(C)C1` [Compound 61] showed an equilibrium dissociation constant (Kd) in test [1] of 1000 to 10000 nM. Further, the half-inhibitory concentration (IC50) in test [2] and in test [3] was 1000 to 10000 nM each time.
`CO[C@@H]1CN(C)C[C@H]1Oc1nc(N2CCNCC2)c2cc(Cl)c(-c3ccc(F)c4sc(N)nc34)c(F)c2n1` [Compound 63]: in test [1], the dissociation constant Kd was 10000 to 30000 nM. For the same compound, the half-inhibitory concentration (IC50) in test [2] and in test [3] was 10000 to 30000 nM throughout.
In test [1], `CN1CCC[C@H]1COc1nc(NCCN)c2cc(Cl)c(-c3cccc4cc(O)ccc34)c(F)c2n1` [Compound 74] had an equilibrium dissociation constant (Kd) of 10000 to 30000 nM. The IC50 in test [2] and in test [3] was 10000 to 30000 nM throughout.
`Nc1nc2c(-c3c(Cl)cc4c(NC5CNC5)nc(OCC56CCCN5CCC6)nc4c3F)ccc(F)c2s1` [Compound 89] yielded a Kd in test [1] of 100 to 1000 nM. For the same compound, the IC50 in test [2] and in test [3] was 1000 to 10000 nM throughout.
With `NCCNc1nc(OCC23CCCN2CCC3)nc2c(F)c(-c3ccc(F)c4sc(N)nc34)c(Cl)cc12` [Compound 77], in test [1], the equilibrium dissociation constant (Kd) was 100 to 1000 nM. In addition, the half-maximal inhibitory concentration (IC50) in test [2] and in test [3] was 1000 to 10000 nM in each case.
For the compound `CN1CCC[C@H]1COc1nc(N2CCN(C(=O)CN)[C@@H](CC#N)C2)c2cc(Cl)c(-c3ccc(F)c4sc(N)nc34)c(O)c2n1` [Compound 59], in test [1], the Kd is 1000 to 10000 nM. For the same compound, the IC50 in test [2] and in test [3] was 10000 to 30000 nM throughout.
Regarding `Cc1ccc2[nH]ncc2c1-c1c(Cl)cc2c(NCCN)nc(OC[C@@H]3CCCN3C)nc2c1F` [Compound 62], in test [1], the Kd lay within 10000 to 30000 nM. Also, the IC50 in test [2] and in test [3] was 10000 to 30000 nM in each case.
With `CO[C@@H]1CN(C)C[C@H]1Oc1nc(NCCN)c2cc(Cl)c(-c3ccc(F)c4sc(N)nc34)c(F)c2n1` [Compound 60], in test [1], the equilibrium dissociation constant (Kd) was 10000 to 30000 nM. In addition, the half-inhibitory concentration (IC50) in test [2] and in test [3] was 10000 to 30000 nM each time.
On to `CN(c1nc(OC[C@@]23CCCN2C[C@H](F)C3)nc2c(F)c(-c3ccc(F)c4sc(N)c(C#N)c34)c(C(F)(F)F)cc12)[C@@H]1CCN[C@@H]1CF` [Compound 364], for which the half-maximal inhibitory concentration (IC50) in test [2] was no more than 100 nM; in test [3], 100 to 1000 nM; in test [4], no more than 100 nM.
For `CN1CCC[C@H]1COc1nc(NC2CNC2)c2cc(C(F)(F)F)c(-c3ccc(F)c4sc(N)nc34)c(F)c2n1` [Compound 129], the half-maximal inhibitory concentration (IC50) in test [2] was 100 to 1000 nM; in test [3], 1000 to 10000 nM; in test [4], greater than 1000 nM.
For `CN(c1nc(OC[C@@]23CCCN2C[C@H](F)C3)nc2c(F)c(-c3ccc(F)c4sc(N)nc34)c(C(F)(F)F)cc12)[C@H]1CNCC12CC2` [Compound 312] the same measures were 1000 to 10000 nM, 10000 to 30000 nM and 100 to 1000 nM.
In the same order, the values of `CN(c1nc(OC[C@@]23CCCN2C[C@H](F)C3)nc2c(Cl)c(-c3ccc(F)c4sc(N)nc34)c(C(F)(F)F)cc12)[C@@H]1CCNC1` [Compound 314] are 100 to 1000 nM, 1000 to 10000 nM and 100 to 1000 nM.
Take `N#Cc1c(N)sc2c(F)ccc(-c3c(OC(F)(F)F)cc4c(N5CC6CCC(C5)N6)nc(OC[C@@]56CCCN5C[C@H](F)C6)nc4c3F)c12` [Compound 320]: the IC50 in test [2] is 100 to 1000 nM; in test [3] it was 100 to 1000 nM; in test [4], no more than 100 nM.
For the compound `C[C@H]1CNC[C@@H]1N(C)c1nc(OC[C@@]23CCCN2C[C@H](F)C3)nc2c(F)c(-c3ccc(F)c4sc(N)nc34)c(C(F)(F)F)cc12` [Compound 309], the values for the 50% inhibitory concentration (IC50) in test [2], in test [3] and in test [4] were 1000 to 10000 nM, 1000 to 10000 nM and 100 to 1000 nM, respectively.
On to `CN1CCC(Oc2nc(N3CC4CCC(C3)N4)c3cc(C(F)(F)F)c(-c4ccc(F)c5sc(N)nc45)c(F)c3n2)CC1` [Compound 340], for which the IC50 in test [2] was in the range of 1000 to 10000 nM; in test [3], 1000 to 10000 nM; in test [4], 100 to 1000 nM.
For `Nc1nc2c(-c3c(C(F)(F)F)cc4c(N5CC6CCC(C5)N6)nc(OCC5(CN6CC[C@@H](F)C6)CC5)nc4c3F)ccc(F)c2s1` [Compound 252], the IC50 in test [2] is 100 to 1000 nM; in test [3] it was 100 to 1000 nM; in test [4], no more than 100 nM.
